From ChEMBL document CHEMBL1201862, “PubChem BioAssay data set” (2004)
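Grown in 96-well plates, cells were treated for 48 hours with each compound at five concentrations. Insufficient inhibition: endpoint recorded as highest concentration tested. Here, GI50 denotes the concentration required for 50% inhibition of growth.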 Activity calls are given as the source filed them. No stated cut-off is given here; in the data, active = GI50 up to about 1.1 µM and inactive = higher.

Assays:
Assay in all cases: DTP human tumour cell line panel, 48 h
786-0 = system: 786-0
A549 = system: A549
ACHN = system: ACHN
CAKI-1 = system: CAKI-1
CCRF-CEM = system: CCRF-CEM
COLO 205 = system: COLO 205
DU-145 = system: DU-145
EKVX = system: EKVX
HCC 2998 = system: HCC 2998
HCT-116 = system: HCT-116
HCT-15 = system: HCT-15
HL-60 = system: HL-60
HOP-62 = system: HOP-62
HOP-92 = system: HOP-92
HT-29 = system: HT-29
Hs-578T = system: Hs-578T
IGROV-1 = system: IGROV-1
K562 = system: K562
KM12 = system: KM12
LOX IMVI = system: LOX IMVI
M14 = system: M14
MCF7 = system: MCF7
MDA-MB-231 = system: MDA-MB-231
MDA-MB-435 = system: MDA-MB-435
MDA-N = system: MDA-N
MOLT-4 = system: MOLT-4
Malme-3M = system: Malme-3M
NCI-H226 = system: NCI-H226
NCI-H23 = system: NCI-H23
NCI-H460 = system: NCI-H460
NCI-H522 = system: NCI-H522
NCI/ADR-RES = system: NCI/ADR-RES
OVCAR-3 = system: OVCAR-3
OVCAR-4 = system: OVCAR-4
OVCAR-5 = system: OVCAR-5
OVCAR-8 = system: OVCAR-8
PC-3 = system: PC-3
RPMI-8226 = system: RPMI-8226
RXF 393 = system: RXF 393
SF-268 = system: SF-268
SF-295 = system: SF-295
SF-539 = system: SF-539
SK-MEL-28 = system: SK-MEL-28
SK-MEL-2 = system: SK-MEL-2
SK-MEL-5 = system: SK-MEL-5
SK-OV-3 = system: SK-OV-3
SN12C = system: SN12C
SNB-19 = system: SNB-19
SNB-75 = system: SNB-75
SR = system: SR
SW-620 = system: SW-620
T47D = system: T47D
TK-10 = system: TK-10
U-251 = system: U-251
UACC-257 = system: UACC-257
UACC-62 = system: UACC-62
UO-31 = system: UO-31

Measured: GI50

COc1cccc(-c2cc(O)c3cc(N4CCCC4)ccc3n2)c1
active: 786-0 < 1 nM | A549 < 1 nM | ACHN 1.13 nM | CAKI-1 < 1 nM | CCRF-CEM < 1 nM | COLO 205 < 1 nM | DU-145 < 1 nM | EKVX 166 nM | HCC 2998 2.06 nM | HCT-116 < 1 nM | HL-60 < 1 nM | HOP-62 < 1 nM | HOP-92 1.12 nM | HT-29 < 1 nM | Hs-578T < 1 nM | IGROV-1 5 nM | K562 < 1 nM | KM12 < 1 nM | LOX IMVI < 1 nM | M14 < 1 nM | MCF7 39.4 nM | MDA-MB-231 1.55 nM | MDA-MB-435 < 1 nM | MDA-N < 1 nM | MOLT-4 < 1 nM | Malme-3M < 1 nM | NCI-H226 < 1 nM | NCI-H23 2.79 nM | NCI-H460 < 1 nM | NCI-H522 < 1 nM | NCI/ADR-RES < 1 nM | OVCAR-3 < 1 nM | OVCAR-5 3.28 nM | OVCAR-8 < 1 nM | PC-3 < 1 nM | RPMI-8226 < 1 nM | RXF 393 < 1 nM | SF-268 < 1 nM | SF-295 < 1 nM | SF-539 < 1 nM | SK-MEL-28 < 1 nM | SK-MEL-2 < 1 nM | SK-MEL-5 < 1 nM | SK-OV-3 < 1 nM | SN12C < 1 nM | SNB-19 < 1 nM | SNB-75 < 1 nM | SR < 1 nM | SW-620 < 1 nM | U-251 < 1 nM | UACC-257 < 1 nM | UACC-62 < 1 nM | UO-31 < 1 nM
1.69 nM: HCT-15
inactive: OVCAR-4 2670 nM | T47D > 10000 nM | TK-10 2600 nM
